Experimental data reported in patent US9951011B2, “Carbazole compounds for in vivo imaging” (priority 2013, dated 2018).
Read-outs that look alike come from different tables or passages of the source.

Assays:
TSPO [1] = biological target: T1, TSPO (Homo sapiens, UniProt P30536); assay: biochemical
Procedure: (§1) Membrane protein was prepared from human platelets obtained from 4 donor whole blood samples. […] Platelet pellets were homogenised in 10 ml buffer 1 (0.32 mM sucrose, 5 mM Tris base, 1 mM MgCl2, pH 7.4, 4° C.). The homogenates were centrifuged at 48,000×g for 15 minutes at 4° C. in a Beckman J2-MC centrifuge. The supernatant was removed and pellets were re-suspended in at least 10 ml buffer 2 (50 mM Tris base, 1 mM MgCl2, pH 7.4, 4° C.) and washed by centrifugation at 48,000×g for 15 min at 4° C. in buffer 2. Membranes were suspended in 2 ml buffer 2 and the protein concentration was determined using Protein Assay Kit II (Bio Rad cat #500-0002). Aliquots were stored at −80° C. until use.
(§2) Aliquots of membrane suspension were thawed and homogenised with assay buffer 3 (50 mM Tris base, 140 mM NaCl, 1.5 mM MgCl2, 5 mM KCl, 1.5 mM CaCl2, pH 7.4, 37° C.). […] Non-radioactive Compound 1 was diluted on a Beckman Biomek 2000 workstation at 11 serial dilutions ranging from 1 μM to 0.01 nM. GE180 and non-radioactive Compound 2 were diluted at 11 serial dilutions ranging from 100 μM to 1 nM. Total and nonspecific binding assessments were also performed. 160 μL of platelet membranes diluted to 30 μg/mL were added to the assay plate for a final volume of 200 μL/well. Assay plates were incubated at 37° C. for at least one hour with termination of incubation by filtering onto GF/B glass fibre plates (Perkin Elmer; cat #6005177) pre-soaked in 0.1% PEI in saline for 60 minutes. Assay plates were rinsed five to six times with ice cold buffer 4 (50 mM Tris Base, 1.4 mM MgCl2, pH 7.4, 4° C.) on a Perkin Elmer Filtermate 196. Plates were then dried, the bottoms sealed, and 50 μL of MicroScint 20 (Perkin Elmer cat #6013621) was added to each well. After sealing the tops, the plates were allowed to equilibrate for at least 30 minutes and the captured radioactivity was counted on a Perkin Elmer TopCount NTX. Compound 1 and Compound 2 were used as racemates.
(§3) Compound 1 and Compound 2 were resolved into enantiomers and the competitive binding assay was performed using platelets isolated from the same 4 human donor whole blood samples as described in Example 6.

TSPO [2] = biological target: T2, TSPO (Homo sapiens, UniProt P30536, T147A); assay: biochemical
Procedure: as §1, §2, §3

TSPO [3] = conditions: low:high affinity ratio; resolved enantiomers
Procedure: as §1, §2, §3

TSPO [4] = conditions: versus [11C]PBR28; cited from earlier work
TSPO [5] = biological target: T1, TSPO; assay: biochemical; remark: listed apart in the source
Procedure: as §1
(§4) Aliquots of membrane suspension were thawed and homogenised with assay buffer 3 (50 mM Tris base, 140 mM NaCl, 1.5 mM MgCl2, 5 mM KCl, 1.5 mM CaCl2, pH 7.4, 37° C.). […] Non-radioactive Compound 1 was diluted on a Beckman Biomek 2000 workstation at 11 serial dilutions ranging from 1 μM to 0.01 nM. GE180 and non-radioactive Compound 2 were diluted at 11 serial dilutions ranging from 100 μM to 1 nM. Total and nonspecific binding assessments were also performed. 160 μL of platelet membranes diluted to 30 μg/mL were added to the assay plate for a final volume of 200 μL/well. Assay plates were incubated at 37° C. for at least one hour with termination of incubation by filtering onto GF/B glass fibre plates (Perkin Elmer; cat #6005177) pre-soaked in 0.1% PEI in saline for 60 minutes. Assay plates were rinsed five to six times with ice cold buffer 4 (50 mM Tris Base, 1.4 mM MgCl2, pH 7.4, 4° C.) on a Perkin Elmer Filtermate 196. Plates were then dried, the bottoms sealed, and 50 μL of MicroScint 20 (Perkin Elmer cat #6013621) was added to each well. After sealing the tops, the plates were allowed to equilibrate for at least 30 minutes and the captured radioactivity was counted on a Perkin Elmer TopCount NTX.

TSPO [6] = biological target: T2, TSPO; assay: biochemical; remark: listed apart in the source
Procedure: as §1, §4

TSPO [7] = conditions: low:high affinity ratio; Compounds 1 and 2 used as racemates
Procedure: as §1, §4

TSPO [8] = conditions: in vitro; LABs versus HABs; cited from earlier work

T2 sequence (P30536 2-169 T147A): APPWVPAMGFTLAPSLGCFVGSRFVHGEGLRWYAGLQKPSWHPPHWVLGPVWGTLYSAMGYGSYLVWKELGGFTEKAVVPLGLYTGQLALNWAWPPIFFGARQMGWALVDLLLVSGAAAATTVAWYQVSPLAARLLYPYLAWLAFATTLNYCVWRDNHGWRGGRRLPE
T1 sequence (P30536 2-169): as the sequence (P30536 2-169 T147A) above, with A146T counted along it

SMILES | Ki (TSPO [1]) | Ki (TSPO [2]) | Low:High (TSPO [3]) | further results
CCN(Cc1ccccc1)C(=O)[C@@H]1CCCc2c1c1ccccc1n2CCF [Compound 1 E2] | 125 nM | 4 nM | 32 | –
CCC(C)N(C)C(=O)c1cc2ccccc2c(-c2ccccc2Cl)n1 (stereo not drawn) [[11C]PK11195] | – | – | – | in vivo specific binding in monkey brain, lower than that reported for [11C]PBR28 (TSPO [4]): ~80 fold
CC(C)N(C)C(=O)[C@H]1CCCc2c1c1ccccc1n2CCF [Compound 2 E1, (S)—N-isopropyl-N-methyl-9-(2-fluoroethyl)-2,3,4,9-tetrahydro-1H-carbazole-4-carboxamide] | 23 nM | 24 nM | 1 | –
CC(C)N(C)C(=O)[C@H]1CCCc2c1c1ccccc1n2CCF (racemic) [Compound 2, (S)—N-isopropyl-N-methyl-9-(2-fluoroethyl)-2,3,4,9-tetrahydro-1H-carbazole-4-carboxamide] | – | – | – | Ki (TSPO [5]): 44.9 nM; Ki (TSPO [6]): 43.8 nM; Low:High (TSPO [7]): 1.02
CCN(Cc1ccccc1)C(=O)[C@H]1CCCc2c1c1ccccc1n2CCF [Compound 1 E1, (S)—N-benzyl-N-ethyl-9-(2-fluoroethyl)-2,3,4,9-tetrahydro-1H-carbazole-4-carboxamide] | 5 nM | 4 nM | 1 | –
COc1ccccc1CN(C(C)=O)c1cnccc1Oc1ccccc1 [[3H]PBR28] | – | – | – | lower TSPO affinity in LABs than in HABs (TSPO [8]): more than 10 fold
CC(C)N(C)C(=O)[C@@H]1CCCc2c1c1ccccc1n2CCF [Compound 2 E2] | 402 nM | 83 nM | 5 | –
CCC(C)N(C)C(=O)c1cc2ccccc2c(-c2ccccc2Cl)n1 (stereo not drawn) [PK11195, reference compound] | – | – | 1 | –
COc1ccccc1CN(C(C)=O)c1cnccc1Oc1ccccc1 [PBR28, N-(2-methoxybenzyl)-N-(4-phenoxypyridin-3-yl)acetamide, reference compound] | – | – | 28 | –
CCN(CC)C(=O)[C@H]1CCCc2c1c1c(OC)cccc1n2CCF (stereo in doubt) [GE180, 9-(2-Fluoro-ethyl)-5-methoxy-2,3,4,9-tetrahydro-1H-carbazole-4-carboxylic acid diethylamide, reference compound] | – | – | 3 | Low:High (TSPO [7]): 15.44
CCN(Cc1ccccc1)C(=O)[C@H]1CCCc2c1c1ccccc1n2CCF (racemic) [Compound 1, (S)—N-benzyl-N-ethyl-9-(2-fluoroethyl)-2,3,4,9-tetrahydro-1H-carbazole-4-carboxamide] | – | – | – | Ki (TSPO [5]): 5.98 nM; Ki (TSPO [6]): 1.85 nM; Low:High (TSPO [7]): 3.24
